Experimental data from ChEMBL document CHEMBL2434880, “Synthesis and assessment of catechol diether compounds as inhibitors of trypanosomal phosphodiesterase B1 (TbrPDEB1)” (Bioorg Med Chem Lett, 2013).

Key:
[1] = target: T1, Class 1 phosphodiesterase PDEB1 (Trypanosoma brucei) (UniProt Q8WQX9); test: Inhibition of Trypanosoma brucei recombinant PDEB1 at 10 uM by spectrophotometric analysis relative to control
T1 sequence (whole entry): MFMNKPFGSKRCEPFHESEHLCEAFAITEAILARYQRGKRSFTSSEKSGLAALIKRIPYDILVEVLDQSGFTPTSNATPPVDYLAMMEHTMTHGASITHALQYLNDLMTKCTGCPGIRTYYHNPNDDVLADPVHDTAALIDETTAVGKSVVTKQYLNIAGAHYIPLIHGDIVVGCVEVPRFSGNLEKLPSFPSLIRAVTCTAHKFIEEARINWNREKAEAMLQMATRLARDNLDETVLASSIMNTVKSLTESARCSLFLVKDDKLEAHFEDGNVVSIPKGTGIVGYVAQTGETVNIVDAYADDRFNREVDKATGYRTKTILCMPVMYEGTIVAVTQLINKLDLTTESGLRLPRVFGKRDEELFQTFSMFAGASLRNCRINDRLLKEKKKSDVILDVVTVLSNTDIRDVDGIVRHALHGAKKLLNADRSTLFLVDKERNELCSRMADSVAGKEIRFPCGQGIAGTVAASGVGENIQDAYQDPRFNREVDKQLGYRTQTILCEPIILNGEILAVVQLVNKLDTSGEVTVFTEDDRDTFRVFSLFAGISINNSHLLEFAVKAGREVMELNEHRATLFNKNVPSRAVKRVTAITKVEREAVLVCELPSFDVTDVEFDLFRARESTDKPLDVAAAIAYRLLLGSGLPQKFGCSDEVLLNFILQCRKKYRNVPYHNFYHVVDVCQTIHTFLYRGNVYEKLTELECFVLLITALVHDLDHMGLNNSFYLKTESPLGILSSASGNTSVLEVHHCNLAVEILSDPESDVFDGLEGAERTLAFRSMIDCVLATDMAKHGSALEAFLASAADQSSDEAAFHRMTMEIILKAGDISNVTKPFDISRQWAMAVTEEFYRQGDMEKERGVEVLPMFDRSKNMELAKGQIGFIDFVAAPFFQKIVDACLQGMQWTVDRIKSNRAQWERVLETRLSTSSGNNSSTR

Phosphodiesterase 4 = Phosphodiesterase 4 (Homo sapiens, UniProt P27815+Q08499+Q07343+Q08493); test: Inhibition of human PDE4; format: protein assay
[2] = test system: Trypanosoma brucei brucei; test: Antitrypanosomal activity against Trypanosoma brucei brucei; format: functional, organism-based
[3] = Inhibition of Trypanosoma brucei PDEB2
[4] = target: T2, Class 1 phosphodiesterase PDEB1 (Trypanosoma brucei, UniProt Q8WQX9); test: Inhibition of Trypanosoma brucei PDEB1
T2 sequence (Q8WQX9 whole entry): T1 sequence (whole entry)

SMILES	inhibition [1] [%]	further results
COc1ccc(-c2ccnc(NCc3ccccc3)n2)cc1OC1CCCC1	32.9	–
COc1ccc(-c2ccncc2)cc1OC1CCCC1	18.7	–
COc1ccc(-c2ccnc(NC3CCC3)n2)cc1OCc1ccccc1	16.1	–
COc1ccc(C2=NN(C3CCCCCC3)C(=O)[C@H]3CC=CC[C@@H]23)cc1OCCCCOc1ccc(-c2nn[nH]n2)cc1	–	IC50 (Phosphodiesterase 4): 0.6 nM; EC50 [2]: 80 nM; IC50 [3]: 6 nM
COc1ccc(-c2ccnc(N(C)C)n2)cc1OCc1ccccc1	14.5	–
COc1ccc(-c2ccnc(NC3CCCC3)n2)cc1OC1CCCC1	12.7	–
COc1ccc(-c2ccnc(N(C)C)n2)cc1OC1CCCC1	15.8	–
COc1ccc(C2=NN(C3CCCC3)C(=O)[C@H]3CC=CC[C@@H]23)cc1OC1CCCC1	–	IC50 [4]: 278 nM; IC50 (Phosphodiesterase 4): 10 nM; IC50 [3]: 544 nM
COc1ccc(-c2ccnc(NC3CCCCC3)n2)cc1OC1CCCC1	29.8	–
COc1ccc(-c2ccnc(NC3CCCCCC3)n2)cc1OC1CCCC1	20.6	–
COc1ccc(-c2ccnc(NC3CCCCCC3)n2)cc1OCc1ccccc1	22.3	–
COc1ccc(-c2ccnc(N(C)C)c2)cc1OC1CCCC1	34	–
COc1ccc(-c2ccnc(NC3CCCCC3)c2)cc1OCc1ccccc1	28.4	–
COc1ccc(-c2ccnc(NC3CCC3)n2)cc1OC1CCCC1	3.9	–
COc1ccc(-c2ccnc(NC3CCCCC3)n2)cc1OCc1ccccc1	23.2	–
COc1ccc(-c2ccnc(N(C)C)c2)cc1OCc1ccccc1	48	–
COc1ccc(-c2ccnc(NC3CCCCC3)c2)cc1OC1CCCC1	27.1	–
COc1ccc(-c2cccc3ncccc23)cc1OC1CCCC1	69.1	–
COc1ccc(-c2ccnc(NC3CCCC3)n2)cc1OCc1ccccc1	21.8	–
COc1ccc(-c2ccnc(NCc3ccccc3)c2)cc1OCc1ccccc1	7.2	–
COc1ccc(-c2ccc(OC)c(OC3CCCC3)c2)cn1	7.6	–
COc1ccc(-c2ccnc(NCc3ccccc3)n2)cc1OCc1ccccc1	18.5	–
